Our source for the Ki values is US6759420B1, “Arylalkanoyl derivatives, processes for their preparation, their use and pharmaceutical compositions containing them” (Aventis Pharma Deutschland GmbH, priority 1999, dated 2004).

This test concerns the target factor Xa (Homo sapiens, UniProt P00742). The test can be described thus: Factor Xa assay (Test 1a), chromogenic. Particulars: in vitro factor Xa assay Test 1a; human factor Xa 0.5 nM, substrate S-2765 140 μM, 25° C.; Ki from IC50 corrected for substrate competition. Set-up: purchased Enzyme Research Laboratories, Inc; South Bend, Ind. The format is biochemical. The source says: The ability of a compound of formula (I) to inhibit factor Xa, thrombin, plasmin, elastase, and trypsin may be assessed by determining the concentration of compound of formula (I) that inhibits enzyme activity by 50% (IC50). Purified enzymes are used in chromogenic assays. To determine the inhibition constant, the IC50 value is corrected for competition with substrate using the formula:
Ki=IC50×(1/{1+((substrate concentration)/substrate Km)})
where Km is the Michaelis-Menten constant. Y. -C. Chen and W. H. Prusoff, Biochem. Pharmacol. 22: […] (1973), which is incorporated herein by reference.
TBS-PEG buffer (50 mM Tris-Cl, pH 7.8, 200 mM NaCl, 0.05% (w/v) PEG-8000, 0.02% (w/v) NaN3) is used for this assay. The IC50 is determined by combining in appropriate wells of a Costar half-area microtiter plate 25 μl human factor Xa (Enzyme Research Laboratories, Inc.; South Bend, Ind.) in TBS-PEG; 40 μl 10% (v/v) DMSO in TBS-PEG (uninhibited control) or various concentrations of the compound to be tested diluted in 10% (v/v) DMSO in TBS-PEG; and substrate S-2765 (N-benzyloxycarbonyl-D-Arg-Gly-L-Arg-p-nitroanilide; Kabi Pharmacia, Inc.; Franklin Ohio) in TBS-PEG.
The assays are performed by pre-incubating the compound of formula (I) plus enzyme for 10 min, then the assay is initiated by adding substrate to obtain a final volume of 100 μl. The initial velocity of chromogenic substrate hydrolysis is measured by the change in absorbance at 405 nm using a Bio-tek Instruments kinetic plate reader (Ceres UV900HDi) at 25° C. during the linear portion of the time course (usually 1.5 min after addition of substrate). The concentration of inhibitor that causes a 50% decrease in the rate of substrate hydrolysis is predicted by linear regression after plotting the relative rates of hydrolysis (compared to the uninhibited control) versus the log of the compound of formula (I) concentration. The enzyme concentration is 0.5 nM and substrate concentration is 140 μM.

As usually defined, the pKi is −log10 of the Ki, conventionally taken in molar units. A lower pKi goes with a high Ki.

pKi: −log10 of the molar value. Where a name gives a salt, the structure may show the parent alone.

factor Xa, sequence (P00742 235-488 limits assumed): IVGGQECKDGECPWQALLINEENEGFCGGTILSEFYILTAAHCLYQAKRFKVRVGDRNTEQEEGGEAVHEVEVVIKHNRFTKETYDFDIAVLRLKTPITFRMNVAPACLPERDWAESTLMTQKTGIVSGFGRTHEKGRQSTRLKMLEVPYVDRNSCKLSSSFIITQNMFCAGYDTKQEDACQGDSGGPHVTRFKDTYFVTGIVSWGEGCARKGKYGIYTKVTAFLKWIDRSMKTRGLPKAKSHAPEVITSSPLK
factor Xa, sequence (P00742 41-179 limits assumed): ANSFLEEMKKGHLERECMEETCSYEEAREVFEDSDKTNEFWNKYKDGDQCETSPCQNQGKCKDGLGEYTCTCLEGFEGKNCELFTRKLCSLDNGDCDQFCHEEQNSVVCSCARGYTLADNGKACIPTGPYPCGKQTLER

Regarding `Cc1ccc(C(Cc2ccc(C(=N)N)cc2)C(=O)NC(C(=O)NCc2ccc(C(=N)N)cc2)C2CCCCC2)cc1` (single isomer, unassigned; less polar) [Example 154], the pKi was 6.51. In turn, `N=C(N)NCCC[C@H](NC(=O)[C@H](Cc1ccc2ccccc2c1)NC(=O)C(Cc1ccc(C(=N)N)cc1)c1ccc2ccccc2c1)C(N)=O` (mixture of isomers) [Example 39, 2-(S)-{2-(S)-[3-(4-Carbamimidoyl-phenyl)-2-(R,S)-naphthalen-2-yl-propionyl-amino]-3-naphthalen-2-yl-propionylamino}-5-guanidino-pentanoic acid amide trifluoroacetic acid salt] had a pKi of 5.54.

Regarding `N=C(N)c1ccc(CC(C(=O)N[C@H](C(=O)NCC2CCN(C(=N)N)CC2)C2CCCCC2)c2ccccc2)cc1` (single isomer, unassigned; less polar) [Example 222], the pKi was 7.37.

For the compound `CC(=N)N1CCC(CNC(=O)C(NC(=O)C(Cc2ccc(C(=N)N)cc2)c2cccc(Br)c2)C2CCCCC2)CC1` (single isomer, unassigned; less polar) [Example 223], the pKi was 9.00. `N=C(N)NCCC[C@H](NC(=O)[C@@H](NC(=O)C(Cc1ccc(C(=N)N)cc1)c1cccnc1)C1CCCCC1)C(N)=O` (stereo partly drawn) [Example 10, 2-(S)-{2-(S)-[3-(4-Carbamimidoyl-phenyl)-2-(R,S)-pyridin-3-yl-propionylamino]-2-cyclohexyl-acetylamino}-5-guanidino-pentanoic acid amide trifluoroactic acid salt] gave a negative logarithm of the Ki (pKi) of 9.05. To `N=C(N)c1ccc(CC(C(=O)NC(C(=O)NCC2CCN(C(=N)N)CC2)C2CCCCC2)c2ccc3ccccc3c2)cc1` (single isomer, unassigned; less polar) [Example 170] belongs 7.48. To `N=C(N)NCCCC(NC(=O)C(NC(=O)C(Cc1ccc(C(=N)N)cc1)c1ccc(Br)cc1)C1CCCCC1)C(N)=O` (single isomer, unassigned; less polar) [Example 119] belongs 7.96; to `CC(Cc1ccc(C(=N)N)cc1)(C(=O)N[C@H](C(=O)N[C@@H](CCCNC(=N)N)C(N)=O)C1CCCCC1)c1ccccc1` (mixture of isomers) [Example 96, 2-(S)-{2-(S)-[3-(4-Carbamimidoyl-phenyl)-2-(R,S)-methyl-2-phenyl-propionylamino]-2-cyclohexyl-acetylamino}-5-guanidino-pentanoic acid amide trifluoroacetic acid salt], 8.08. To `CC(=N)N1CCC(CNC(=O)[C@@H](NC(=O)C(Cc2ccc(C(=N)N)cc2)c2cccc(C(F)(F)F)c2)C2CCCCC2)CC1` (single isomer, unassigned; less polar) [Example 258] belongs 8.10; to `CCCOC(=O)C(CCCNC(=N)N)NC(=O)C(NC(=O)C(Cc1ccc(C(=N)N)cc1)C1CCCCC1)C1CCCCC1` (single isomer, unassigned; less polar) [Example 189], 7.70; to `Cc1cccc(C(Cc2ccc(C(=N)N)cc2)C(=O)N[C@H](C(=O)N[C@@H](CCCNC(=N)N)C(N)=O)C2CCCCC2)c1` (mixture of isomers) [Example 122, 2-(S)-{2-(S)-[3-(4-Carbamimidoyl-phenyl)-2-(R,S)-m-tolyl-propionylamino]-2-cyclohexyl-acetylamino}-5-guanidino-pentanoic acid amide hydrochloric acid salt], 7.80. In the case of `N=C(N)NCCC[C@H](NC(=O)C(NC(=O)C(Cc1ccc(C(=N)N)cc1)C1CCCCC1)C1CCCCC1)C(=O)NCc1ccc(Cl)cc1` (stereo partly drawn) [Example 201, 2-(S)-{2-[3-(4-Carbamimidoyl-phenyl)-2-cyclohexyl-propionylamino]-2-cyclohexyl-acetylamino}-5-guanidino-pentanoic acid 4-chloro-benzylamide trifluoroacetic acid salt], the pKi was 7.38.

The compound `CCCCOC(=O)[C@H](CCCNC(=N)N)NC(=O)[C@@H](NC(=O)C(Cc1ccc(C(=N)N)cc1)C1CCCCC1)C1CCCCC1` (single isomer, unassigned; less polar) [Example 188] had a pKi of 7.66. `N=C(N)c1ccc(CC(C(=O)N[C@H](C(=O)NCC2CCN(C(=N)N)CC2)C2CCCCC2)c2ccccc2Cl)cc1` (single isomer, unassigned; less polar) [Example 230] had a pKi of 9.00. In the case of `N=C(N)c1ccc(CC(C(=O)N[C@H](C(=O)NCC2CCN(C(=N)N)CC2)C2CCCCC2)c2cccc3ccccc23)cc1` (single isomer, unassigned; less polar) [Example 241], the pKi was 7.60. `CN(C)C(=O)[C@H](CCCNC(=N)N)NC(=O)[C@@H](NC(=O)C(Cc1ccc(C(=N)N)cc1)c1cccc(Br)c1)C1CCCCC1` (single isomer, unassigned; less polar) [Example 246] had a pKi of 9.15. On to `N=C(N)NCCCC(NC(=O)C(NC(=O)C(Cc1ccc(C(=N)N)cc1)C1CCCCC1)C1CCCCC1)C(N)=O` (single isomer, unassigned) [Example 110], for which the pKi is 8.70. The result for `N=C(N)c1ccc(CNC(=O)C(NC(=O)C(Cc2ccc(C(=N)N)cc2)c2cccc(F)c2)C2CCCCC2)cc1` (single isomer, unassigned; less polar) [Example 149] reads 7.64; that for `CCOC(=O)[C@H](CCCNC(=N)N)NC(=O)[C@@H](NC(=O)C(Cc1ccc(C(=N)N)cc1)c1cccc(F)c1)C1CCCCC1` (mixture of isomers) [Example 126, 2-(S)-{2-(S)-[3-(4-Carbamimidoyl-phenyl)-2-(R,S)-(3-fluoro-phenyl)-propionylamino]-2-cyclohexyl-acetylamino}-5-guanidino-pentanoic acid ethyl ester hydrochloric acid salt], 7.96. The result for `N=C(N)c1ccc(CC(C(=O)N[C@H](C(=O)NCC2CCN(C(=N)N)CC2)C2CCCCC2)c2ccc(Cl)cc2)cc1` (single isomer, unassigned; less polar) [Example 216] reads 7.72; that for `Cc1ccccc1C(Cc1ccc(C(=N)N)cc1)C(=O)N[C@H](C(=O)N[C@@H](CCCNC(=N)N)C(N)=O)C1CCCCC1` (mixture of isomers) [Example 140, 2-(S)-{2-(S)-[3-(4-Carbamimidoyl-phenyl)-2-(R,S)-o-tolyl-propionylamino]-2-cyclohexyl-acetylamino}-5-guanidino-pentanoic acid amide hydrochloric acid salt], 8.52; that for `N=C(N)c1ccc(CC(C(=O)NC(C(=O)NCC2CCN(C(=N)N)CC2)C2CCCCC2)c2ccc(Br)cc2)cc1` (single isomer, unassigned; less polar) [Example 177], 9.00. The result for `N=C(N)c1ccc(CC(C(=O)N[C@H](C(=O)NCC2CCN(C(=N)N)CC2)C2CCCCC2)c2ccccc2F)cc1` (stereo partly drawn) [Example 214, 3-(4-Carbamimidoyl-phenyl)-N-{(S)-[(1-carbamimidoyl-piperidin-4-ylmethyl)-carbamoyl]-cyclohexyl-methyl}-2-(2-fluoro-phenyl)-propionamide trifluoroacetic acid salt] reads 7.33; that for `N=C(N)c1ccc(CNC(=O)[C@@H](NC(=O)C(Cc2ccc(C(=N)N)cc2)c2cccc(Cl)c2)C2CCCCC2)cc1` (mixture of isomers) [Example 157, N-[(S)-(4-Carbamimidoyl-benzylcarbamoyl)-cyclohexyl-methyl]-3-(4-carbamimidoyl-phenyl)-2-(R,S)-(3-chloro-phenyl)-propionamide hydrochloric acid salt], 7.72. In turn, `CCCC[C@H](NC(=O)C(Cc1ccc(C(=N)N)cc1)c1cccnc1)C(=O)N[C@@H](CCCNC(=N)N)C(N)=O` (mixture of isomers) [Example 23, 2-(S)-[3-(4-Carbamimidoyl-phenyl)-2-(R,S)-pyridin-3-yl-propionylamino]-hexanoic acid (1-(S)-carbamoyl-4-guanidino-butyl)-amide trifluoroacetic acid salt] had a pKi of 8.55. As to `N=C(N)NCCC[C@H](NC(=O)[C@H](CCCN)NC(=O)C(Cc1ccc(C(=N)N)cc1)c1cccnc1)C(N)=O` (mixture of isomers) [Example 51, 2-(S)-{5-Amino-2-(S)-[3-(4-carbamimidoyl-phenyl)-2-(R,S)-pyridin-3-yl-propionylamino]-pentanoylamino}-5-guanidino-pentanoic acid amide trifluoroacetic acid salt], the pKi is 5.41.
